The first experiment has as its target T1, NLRP3 (Homo sapiens, UniProt Q96P20).
T1 construct: host or cells: PMA-differentiated THP-1 cells
The experiment in a line: Measurement of IL-1β production in PMA-differentiated THP-1 cells (NLRP3 hIL1B). Format: cell-based. Particulars: read-out: NLRP3 hILIB IC50. On the procedure:
Measurement of IL-1β Production in PMA-Differentiated THP-1 Cells
THP-1 cells were purchased from the American Type Culture Collection and sub-cultured according to instructions from the supplier. Prior to experiments, cells were cultured in RPMI 1640 containing 10% heat inactivated FBS, penicillin (100 units/ml) and streptomycin (100 μg/ml), and maintained in log phase prior to experimental setup. Prior to the experiment THP-1 were treated with PMA (Phorbol 12-myristate 13-acetate) ([…]) for 24 hours. The day of the experiment the media was removed and attaching cells were treated with trypsin for 2 minutes, cells were then collected, washed with PBS (phosphate buffer saline), spin down, resuspended in 2% heat inactivated FBS with RPMI at a concentration of 1×10^6 cells/ml, and 100 μl was plated in a 96 well plate. Compounds were dissolved in dimethyl sulfoxide (DMSO) and added to the culture medium to achieve desired concentration (e.g. 100, 30, 10, 3, 1, 0.3 or 0.1 μM). Cells were incubated with compounds for 4 hours. Cell free supernatant was collected and the production of IL-1β was evaluated by ELISA. A vehicle only control was run concurrently with each experiment. Final DMSO concentration was 1%.
Measurement of IL-1β Production in PMA-Differentiated THP-1 Cells (Alternative Procedure)
THP-1 cells were purchased from the American Type Culture Collection and sub-cultured according to instructions from the supplier. Prior to experiments, cells were cultured in RPMI 1640 containing 10% heat inactivated FBS, penicillin (100 units/ml), streptomycin (100 μg/ml), HEPES (10 mM) and sodium pyruvate (1 mM) and maintained in log phase prior to experimental setup. Prior to the experiment, THP-1 cells were treated with PMA (Phorbol 12-myristate 13-acetate) (20 μg/ml) overnight. The day of the experiment, the media was removed and attached cells were treated with trypsin for 2 minutes, cells were then collected, washed with PBS (phosphate buffer saline), pelleted by centrifugation and resuspended in 2% heat inactivated FBS with RPMI at a concentration of 50,000 cells/well in a 384 well plate. Cell free supernatant was collected and the production of IL-1β was evaluated by ELISA. Compounds were dissolved in dimethyl sulfoxide (DMSO) and added to the culture medium to achieve desired concentration (e.g. 100, 30, 10, 3, 1, 0.3 or 0.1 μM). Cells were incubated with compounds for 2 hours. A vehicle only control was run concurrently with each experiment. Final DMSO concentration was 1%.
Measurement of IL-1β Production—hTRF Protocol (Second Alternative Procedure)
Serial dilutions of compounds in DMSO were added to low volume 384 well plates at 100 nl/well using an ECHO 550 acoustic dispenser (Labcyte) to achieve final starting concentration of 10 μM in assay.
THP-1 cells in RPMI (Gibco, 11875) media with 10% FBS at a density of 1×10^6 cell/ml in a T175 flask were treated with a final concentration of phorbol 12-myristate 13-acetate (PMA) (Sigma, P1585) of 50 ng/ml overnight at 37° C. at 5% CO2 for differentiation. Cells were harvested the next day after rinsing well with dPBS using 0.5% trypsin. A cell solution was prepared of 1×10^6 cells/ml for 50,000 cells in 50 μl/well in RPMI media with 2% FBS. Cells were plated using a multichannel pipette onto the compound dilutions in Greiner, 384 well, black clear bottom tissue culture treated plates (781090). The plates were incubated in 37° C. incubator at 5% CO2 for 2 hours.
After the 2 hour incubation, the cell plates were spun in the centrifuge for 5 minutes at 1200 rpm. Using the Felix (CyBio), 8 μl of the supernatant was transferred to 384 well, low volume, white proxy plates. (Perkin Elmer, 6008230). A human IL1beta hTRF kit was used to analyze the supernatant (CISBIO, 62HIL1BPEG). The kit instructions were followed for preparing the IL1Beta standard curve and then the antibodies from the kit were diluted 1:40 rather than 1:20 as kit instructed. […]
T1 sequence (Q96P20 whole entry): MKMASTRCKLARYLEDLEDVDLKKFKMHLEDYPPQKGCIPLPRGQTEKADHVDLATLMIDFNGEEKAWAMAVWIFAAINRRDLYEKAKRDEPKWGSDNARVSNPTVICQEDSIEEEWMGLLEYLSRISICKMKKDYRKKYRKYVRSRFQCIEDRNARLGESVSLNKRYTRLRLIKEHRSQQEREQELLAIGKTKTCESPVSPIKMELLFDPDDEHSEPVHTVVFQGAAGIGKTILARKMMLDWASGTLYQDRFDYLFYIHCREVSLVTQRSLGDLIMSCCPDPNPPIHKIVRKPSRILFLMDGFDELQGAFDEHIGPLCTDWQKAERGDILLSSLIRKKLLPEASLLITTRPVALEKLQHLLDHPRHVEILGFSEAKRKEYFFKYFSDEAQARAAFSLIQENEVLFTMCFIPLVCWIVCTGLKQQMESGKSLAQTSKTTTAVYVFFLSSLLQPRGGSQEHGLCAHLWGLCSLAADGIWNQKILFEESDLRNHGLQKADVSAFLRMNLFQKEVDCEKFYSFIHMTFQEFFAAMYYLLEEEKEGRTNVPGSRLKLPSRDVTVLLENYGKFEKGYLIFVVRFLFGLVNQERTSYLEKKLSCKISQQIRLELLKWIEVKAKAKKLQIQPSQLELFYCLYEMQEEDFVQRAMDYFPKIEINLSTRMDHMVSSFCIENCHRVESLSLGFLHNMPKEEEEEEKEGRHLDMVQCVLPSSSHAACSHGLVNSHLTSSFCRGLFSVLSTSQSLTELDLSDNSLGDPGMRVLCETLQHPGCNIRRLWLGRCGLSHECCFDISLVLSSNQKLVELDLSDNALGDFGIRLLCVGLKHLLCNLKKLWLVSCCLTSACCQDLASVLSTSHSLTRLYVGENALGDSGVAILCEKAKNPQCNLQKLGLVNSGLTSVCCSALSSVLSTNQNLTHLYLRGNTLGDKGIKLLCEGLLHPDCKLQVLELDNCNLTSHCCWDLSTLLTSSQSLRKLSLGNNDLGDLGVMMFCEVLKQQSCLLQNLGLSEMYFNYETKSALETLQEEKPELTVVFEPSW
By IC50 is commonly meant the concentration that gives 50% inhibition. Take `COC1CN(Cc2nc3c(N)nc4cc(-c5cc[nH]n5)ccc4c3n2C2CCC2)C1` [Example 1, 1-cyclobutyl-2-[(3-methoxyazetidin-1-yl)methyl]-7-(1H-pyrazol-5-yl)-1H-imidazo[4,5-c]quinolin-4-amine]: the IC50 was found to be 0.12 µM.
The same measure, in the same setting: then `Nc1nc2cc(-c3cc[nH]n3)ccc2c2c1nc(CN1CC(F)(F)C1)n2CC(F)F` [Example 2], with 0.08 µM; and `Nc1nc2cc(-c3cc[nH]n3)ccc2c2c1nc(CN1CC(F)C1)n2CC(F)F` [Example 3], with 0.22 µM; and `Nc1nc2cc(-c3cc[nH]n3)ccc2c2c1nc(CN1CCC1)n2C1CC1` [Example 4], with 0.18 µM.
On the same count and under the same terms, then `COC1CN(Cc2nc3c(N)nc4cc(-c5cc[nH]n5)ccc4c3n2C2CC2)C1` [Example 5], with 0.27 µM; and `Nc1nc2cc(-c3cc[nH]n3)ccc2c2c1nc(CN1CC(F)C1)n2C1CCC1` [Example 6], with 0.26 µM; and `COC1CN(Cc2nc3c(N)nc4cc(-c5cc[nH]n5)ccc4c3n2CC(F)F)C1` [Example 7], with 0.22 µM.
On the same count and under the same terms, for `Nc1nc2cc(-c3cc[nH]n3)ccc2c2c1nc(CN1CC(F)(F)C1)n2C1CCC1` [Example 8] the value was 0.2 µM.
On to `Nc1nc2cc(-c3cc[nH]n3)ccc2c2c1nc(CN1CC(F)C1)n2C1CC1` [Example 10], for which the IC50 worked out at 0.25 µM.
`Nc1nc2cc(-c3cc[nH]n3)ccc2c2c1nc(CN1CC3(CCCO3)C1)n2C1CCC1` [Example 11]: the IC50 came out at 0.24 µM.
Still for that read-out and setting: for `N#CC1CN(Cc2nc3c(N)nc4cc(-c5cc[nH]n5)ccc4c3n2C2CC2)C1` [Example 12] the value was 2 µM; for `CC(C)n1c(CN2CC(C#N)C2)nc2c(N)nc3cc(-c4cc[nH]n4)ccc3c21` [Example 13], 0.63 µM.
The same measure, in the same setting: then `Nc1nc2cc(-c3cc[nH]n3)ccc2c2c1nc(CN1CC3(CCCO3)C1)n2C1CC1` [Example 14], with 1.61 µM; and `CC(C)n1c(CN2CC(C)(O)C2)nc2c(N)nc3cc(-c4cc[nH]n4)ccc3c21` [Example 15], with 1.1 µM; and `Nc1nc2cc(-c3cc[nH]n3)ccc2c2c1nc(CN1CC(O)C1)n2C1CC1` [Example 16], with 4.8 µM.
The same measure, in the same setting: for `CC1(O)CN(Cc2nc3c(N)nc4cc(-c5cc[nH]n5)ccc4c3n2C2CCC2)C1` [Example 17] the value was 2.2 µM.

The next experiment addresses T2, human TLR8 (Homo sapiens, UniProt Q9NR97).
T2 construct: host or cells: HEK-Blue cells (human HEK) co-expressing TLR8 and an NF-kB/AP1-inducible SEAP reporter
T2 sequence (Q9NR97 27-1041): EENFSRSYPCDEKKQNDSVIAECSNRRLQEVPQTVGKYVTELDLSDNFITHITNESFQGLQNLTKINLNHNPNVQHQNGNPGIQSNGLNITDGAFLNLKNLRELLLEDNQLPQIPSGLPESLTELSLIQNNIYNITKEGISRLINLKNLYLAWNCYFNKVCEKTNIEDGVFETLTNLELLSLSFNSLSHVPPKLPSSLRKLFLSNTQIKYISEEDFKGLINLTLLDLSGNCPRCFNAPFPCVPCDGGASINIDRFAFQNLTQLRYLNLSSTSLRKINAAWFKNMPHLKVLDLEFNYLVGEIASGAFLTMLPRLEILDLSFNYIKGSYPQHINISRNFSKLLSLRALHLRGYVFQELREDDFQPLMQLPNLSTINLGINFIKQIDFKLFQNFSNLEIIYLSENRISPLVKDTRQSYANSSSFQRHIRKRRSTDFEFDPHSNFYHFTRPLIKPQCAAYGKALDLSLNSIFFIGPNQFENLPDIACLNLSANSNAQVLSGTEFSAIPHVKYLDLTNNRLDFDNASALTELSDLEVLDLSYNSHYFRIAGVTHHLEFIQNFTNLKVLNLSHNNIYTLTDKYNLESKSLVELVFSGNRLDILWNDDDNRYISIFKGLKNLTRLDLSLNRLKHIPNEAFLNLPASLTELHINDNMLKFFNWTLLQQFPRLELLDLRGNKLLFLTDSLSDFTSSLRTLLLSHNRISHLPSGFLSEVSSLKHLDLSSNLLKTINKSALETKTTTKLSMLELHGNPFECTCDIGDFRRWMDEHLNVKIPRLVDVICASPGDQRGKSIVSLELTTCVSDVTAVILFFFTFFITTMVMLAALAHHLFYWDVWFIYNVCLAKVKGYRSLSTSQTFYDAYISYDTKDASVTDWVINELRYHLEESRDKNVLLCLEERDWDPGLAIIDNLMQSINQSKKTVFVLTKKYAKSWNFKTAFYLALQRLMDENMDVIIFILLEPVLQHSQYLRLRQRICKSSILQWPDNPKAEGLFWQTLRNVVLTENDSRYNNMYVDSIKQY
The experiment in a line: In vitro human TLR8 reporter assay (HEK-Blue cells, NF-kB/AP1-inducible SEAP). Format: cell-based. The following applies: HEK-Blue cells expressing TLR8, SEAP reporter; read-out: TLR8 Agonist EC50. As to the method: In Vitro Human TLR7 and TLR8 Binding Reporter Assays
Logarithmically-growing human HEK-Blue cells co-expressing a TLR7 or TLR8 gene and a NF-kB/AP1-inducible SEAP (secreted embryonic alkaline phosphatase; Invivogen, San Diego, Calif.) reporter gene are added to individual wells of a 384-well plate (15,000 cells per 20 μL per well) and maintained for 24 h at 37° C., 5% CO2. Test compounds or DMSO are distributed to separate wells the next day using acoustic liquid handling technology (100 nL per well) and cells are subsequently incubated for 18 h at 37° C., 5% CO2. Cellular SEAP production is measured using an Envision plate reader instrument thirty minutes after adding freshly-made Quanti-Blue reagent (prepared by following manufacturer instructions; Invivogen, San Diego, Calif.) to the HEK-Blue TLR Nf-kB-SEAP cell reactions. All EC50 values (half-maximal effective concentration) are determined using proprietary data analysis software. Normalized EC50 value=absolute value determined by setting 100% Ymax using a reference standard RLU (relative light unit) values from cells treated with 50 μM of the reference standard.
For orientation: A reporter such as luciferase makes a cellular process visible.
Broadly, the EC50 is the concentration that produces a half-maximal response. For the compound `Nc1nc2cc(-c3cc[nH]n3)ccc2c2c1nc(CN1CC(F)(F)C1)n2CC(F)F` [Example 2], the EC50 was 1 to 20 µM.

The values are drawn from patent US12201627B2, “NLRP3 modulators” (Innate Tumor Immunity, Inc., priority 2018, dated 2025).
